Experimental data reported in PubChem BioAssay (NCI).
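Cells were grown in 96-well plates and exposed to each compound for 48 hours at five concentrations; endpoints were interpolated linearly between bracketing concentrations, or set to the highest concentration if not reached. GI50 is the concentration that inhibits growth by half. Definition used: TGI = concentration required for complete inhibition of growth.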

Experiments:
Test in all cases: growth of human tumour cells (NCI), 48 h
A498 renal = test system: A498 renal
CCRF-CEM leukemia = test system: CCRF-CEM leukemia
HCT-15 colon = test system: HCT-15 colon
MDA-MB-231 breast = test system: MDA-MB-231 breast
OVCAR-3 ovarian = test system: OVCAR-3 ovarian
SK-MEL-28 melanoma = test system: SK-MEL-28 melanoma
SK-MEL-5 melanoma = test system: SK-MEL-5 melanoma
SN12C renal = test system: SN12C renal
SNB-75 CNS = test system: SNB-75 CNS
U251 CNS = test system: U251 CNS

Structure (SMILES) | TGI (A498 renal) [µM] | GI50 (CCRF-CEM leukemia) [µM] | TGI (CCRF-CEM leukemia) [µM] | GI50 (HCT-15 colon) [µM] | TGI (HCT-15 colon) [µM] | TGI (MDA-MB-231 breast) [µM] | GI50 (OVCAR-3 ovarian) [µM] | TGI (OVCAR-3 ovarian) [µM] | TGI (SK-MEL-28 melanoma) [µM] | TGI (SK-MEL-5 melanoma) [µM] | TGI (SN12C renal) [µM] | GI50 (SNB-75 CNS) [µM] | TGI (SNB-75 CNS) [µM] | TGI (U251 CNS) [µM] | GI50 (A498 renal) [µM] | GI50 (MDA-MB-231 breast) [µM] | GI50 (SK-MEL-28 melanoma) [µM] | GI50 (SK-MEL-5 melanoma) [µM] | GI50 (SN12C renal) [µM] | GI50 (U251 CNS) [µM]
CN1CC[C@]2(c3cccc(O)c3)CC(=O)/C(=C/c3ccccc3)[C@H]1C2 | 21.1 | 2.53 | 9.36 | 2.5 | 10.6 | 8.08 | 2.64 | 6.95 | 12.8 | 9.35 | 11.4 | 3.89 | 14.4 | 9.92 |  |  |  |  |  | 
COc1cc2nc(-c3ccc(Cl)cc3)cc(OCCCN3CCCC3)c2cc1OC | 5.19 | 2.14 | 7.09 | 0.567 | 11.5 | 4.08 | 2.71 | 13.1 | 4.28 | 2.16 | 13.7 | 1.73 | 5.09 | 14.5 | 2.19 | 0.907 | 1.48 | 0.961 | 0.914 | 1.79
CN(C)CCC=C1c2ccccc2C(C)(C)c2ccccc21 | 26 | 9.84 | 28.4 | 12.3 | 27.5 | 28.8 | 15.2 | 28.5 | 4.31 | 5.09 | 34 | 2.86 | 17.6 | 26.1 | 12.9 | 13.8 | 2.05 | 1.9 | 15.6 | 12.2
Clc1cc2c(nn1)Nc1ccccc1S2 | > 100 | > 100 | > 100 | > 100 | > 100 | > 100 | > 100 | > 100 | > 100 | > 100 | > 100 | > 100 | > 100 | > 100 | > 100 | > 100 | > 100 | > 100 | > 100 | > 100
O=c1c2cccc(F)c2sc2c(N3CCNCC3)nc3ccccc3c12 | 8.51 | 1.33 | 3.18 | 1.29 | 2.71 | 3.1 | 1.59 | 3.04 | 3.35 | 3.08 | 2.72 | 1.16 | 2.41 | 2.96 | 1.92 | 1.61 | 1.88 | 1.69 | 1.32 | 1.39
COc1ccc(CNC(C)C(=O)O)cc1 (stereo not given) | > 100 |  | 65.5 |  | > 100 | > 100 |  | > 100 | > 100 | > 100 | > 100 |  | > 100 | > 100 |  |  |  |  |  | 
COC1=C(Br)C(O)C2(C=C1Br)CC(C(=O)NCCCCNC(=O)C1=NOC3(C=C(Br)C(OC)=C(Br)C3O)C1)=NO2 (stereo not given) | > 100 |  | 40.3 |  | > 100 | 66.6 |  | 39.4 | > 100 | 36.6 | > 100 |  | 61.2 | > 100 |  |  |  |  |  | 
Nc1nc2c(nnn2C2OC(CO)C(O)C2O)c(=O)[nH]1 (stereo not given) | > 30.2 | 0.676 | > 100 | 0.714 | > 100 | > 100 | 1.17 | 10.7 | > 100 | 9.24 | > 100 | 5.86 | > 100 | > 100 | 1.86 | 4.48 | 16.9 | 2.44 | 3.25 | 2.96
NC1CCC(Nc2nc(NCc3cc(Cl)ccc3O)c3ncn(C4CCCC4)c3n2)CC1 (stereo not given) | 0.484 | 0.127 | 0.532 | 0.259 | 0.966 | 0.759 | 0.133 | 0.64 | 0.34 | 0.325 | 0.759 | 0.114 | 0.33 | 0.444 | 0.211 | 0.186 | 0.153 | 0.175 | 0.143 | 0.14
Nc1ccccc1NC(=O)c1ccc(CN2CCC/C(=C\c3ccccn3)C2=O)cc1 | 3.47 | 0.645 | > 100 | 1.11 | > 100 | > 100 | 2.37 | > 100 |  | 3.79 | > 100 | 1.06 | 6.05 | > 100 | 1.09 | 4.04 |  | 1.46 | 2.59 | 1.83
CNc1cc2nc3cc(NC)c(C)cc3cc2cc1C | 3.9 | 1.08 | 33.3 | 3.7 | 91.1 | 2.88 | 1.32 | 10 | 20.5 | 14 | 10.5 | 3.75 | 19.4 |  | 1.18 | 1.08 | 5.91 | 2.05 | 0.573 | 
